We go through nine molecules from EP1980248B1, “Composition for treating cancer cells and synthetic method for the same” (Kaohsiung Medical University, priority 2007, dated 2008).

Holding throughout (experiment): Cytotoxicity assay, MTT colorimetric method
Holding throughout (type): cell-based
Background: Tetrazolium assays rely on reduction of a dye to a coloured formazan, in cell work by metabolically active cells.

One assay has as its system A549. Particulars: A549 human lung cancer cell line; 72 hrs treatment; cell viability by MTT. As to the method:
(§1) Human liver (HepG2 and Hep3B), breast (MCF-7 and MDA-MB-231), and lung (A549) cancer cell lines were propagated in RPMI-1640 medium supplement with 10% (v/v) FBS, 100 U/mL penicillin and 100 µg/mL streptomycin at 37°C in a humidified atmosphere of 5% CO2 and 95% air. The culturing medium is changed every three days. Upon confluency, cells were subcultured to confluency, and used for experiments. The experimental period is determined according to the aim of experiment.
(§2) Cytotoxicity is measured by the MTT colorimetric method. Cells were seeded at densities of 5,000 - 10,000 cells/well in 96-well tissue culture plates. On day two, cells are treated with test compounds for another 72 hrs. After drug treatment, attached cells were incubated with MTT (0.5 mg/mL) for 1 hr and subsequently solubilized in DMSO. The absorbency at 550 nm is then measured using a microplate reader. The IC50 is the concentration of agent that reduces the cell viability by 50% under the experimental conditions, and the cytotoxic compound, Doxorubicin, is used as a positive control.

In a further assay the test system is HepG2. Particulars: HepG2 human liver cancer cell line; 72 hrs treatment; cell viability by MTT. The protocol:
as §1, §2

Another assay deals with Hep3B. Conditions: Hep3B human liver cancer cell line; 72 hrs treatment; cell viability by MTT. As to the method:
as §1, §2

For a further assay, the system named is MDA-MB-231. Conditions: MDA-MB-231 human breast cancer cell line; 72 hrs treatment; cell viability by MTT. The protocol:
as §1, §2

In another assay the test system is MCF-7. Conditions: MCF-7 human breast cancer cell line, 72 hrs treatment, cell viability by MTT; for IC50: MCF7. As to the method: as §1, §2

The term IC50 denotes the midpoint of a concentration-inhibition curve.

The structures appear in SMILES notation. Values after ≈ are worked out from the molar mass of the structure shown.

Consider `COc1cccc2c1C(=O)c1c(O)c3c(c(O)c1C2=O)C[C@@](O)(C(=O)CO)C[C@@H]3O[C@H]1C[C@H](N)[C@H](O)[C@H](C)O1` [Doxorubicin, reference compound], for which the IC50 in the assay with A549 turned out to be 0.21 µg/mL (≈ 0.386 µM); in the assay with HepG2 it was 0.29 µg/mL (≈ 0.534 µM); with Hep3B it was 0.36 µg/mL (≈ 0.662 µM); in the assay with MDA-MB-231, 0.08 µg/mL (≈ 0.147 µM); with MCF-7, 0.43 µg/mL (≈ 0.791 µM).

Consider `COC1(c2cc(=O)c3ccccc3o2)C=CC(=O)C=C1` [compound 8b, 1'-methoxyprotoflavonoen], for which the 50% inhibitory concentration (IC50) with A549 is over 20 µg/mL; with HepG2 it was 10.9 µg/mL (≈ 40.8 µM); in the assay on Hep3B, 1.45 µg/mL (≈ 5.41 µM); in the assay on MDA-MB-231 it was 1.47 µg/mL (≈ 5.48 µM); in the assay with MCF-7 it was 2.14 µg/mL (≈ 7.98 µM).

For `COc1cc(O)c2c(=O)cc(C3(O)C=CC(=O)C=C3)oc2c1` [compound 18a, 5-hydroxy-2-(1-hydroxy-4-oxocyclohexa-2,5-dienyl)-7-methoxy-4H-chromen-4-one], the IC50 came out at 0.93 µg/mL (≈ 3.1 µM) in the assay with A549; 0.17 µg/mL (≈ 0.566 µM) in the assay with HepG2; 0.2 µg/mL (≈ 0.666 µM) with Hep3B; 0.13 µg/mL (≈ 0.433 µM) in the assay on MDA-MB-231; 0.51 µg/mL (≈ 1.7 µM) with MCF-7.

Take `O=C1C=CC(O)(c2cc(=O)c3c(O)cccc3o2)C=C1` [compound 10a, 2-(1-hydroxy-4-oxocyclohexa-2,5-dienyl)-5-hydroxy-4H-chromen-4-one]: the IC50 came to 1.37 µg/mL (≈ 5.07 µM) in the assay on A549; 1.34 µg/mL (≈ 4.96 µM) in the assay with HepG2; 0.35 µg/mL (≈ 1.3 µM) with Hep3B; 0.18 µg/mL (≈ 0.666 µM) in the assay on MDA-MB-231; 0.93 µg/mL (≈ 3.44 µM) with MCF-7.

Consider `COC1(c2cc(=O)c3c(C)cccc3o2)C=CC(=O)C=C1` [10b, 1'-methoxy-5-methylprotoflavonone], for which the “IC50 A549” value in the assay on A549 amounted to 16.36 µg/mL (≈ 58 µM). In the assay on HepG2, the “IC50 HepG2” value turned out to be 7.64 µg/mL (≈ 27.1 µM). Further, the “IC50 Hep3B” value in the assay with Hep3B came to 0.66 µg/mL (≈ 2.34 µM). Also, the “IC50 MDA-MB-231” value with MDA-MB-231 was found to be 0.54 µg/mL (≈ 1.91 µM). Also, the “IC50 MCF-7” value in the assay on MCF-7 is listed as 1.55 µg/mL (≈ 5.49 µM).

For the molecule `O=C1C=CC(O)(c2cc(=O)c3ccccc3o2)C=C1` [compound 8a, 2-(1-hydroxy-4-oxocyclohexa-2,5-dienyl)-4H-chromen-4-one], the IC50 came out at 1.33 µg/mL (≈ 5.23 µM) in the assay with A549; 1.71 µg/mL (≈ 6.73 µM) in the assay with HepG2; 0.32 µg/mL (≈ 1.26 µM) with Hep3B; 0.18 µg/mL (≈ 0.708 µM) in the assay with MDA-MB-231; 0.44 µg/mL (≈ 1.73 µM) in the assay on MCF-7.

In the case of `COC1(c2cc(=O)c3c(ccc4ccccc43)o2)C=CC(=O)C=C1` [compound 15b], the IC50 in the assay with A549 came to 8.2 µg/mL (≈ 25.8 µM); in the assay with HepG2 it was 3.16 µg/mL (≈ 9.93 µM); in the assay on Hep3B it was 0.35 µg/mL (≈ 1.1 µM); in the assay on MDA-MB-231 it was 0.37 µg/mL (≈ 1.16 µM); in the assay with MCF-7, 0.86 µg/mL (≈ 2.7 µM).

For `O=C1C=CC(O)(c2cc(=O)c3c(O)cc(O)cc3o2)C=C1` [protoapigenone], the IC50 in the assay with A549 came to 3.96 µg/mL (≈ 13.8 µM); in the assay on HepG2, 2.32 µg/mL (≈ 8.11 µM); in the assay with Hep3B, 0.65 µg/mL (≈ 2.27 µM); with MDA-MB-231, 0.41 µg/mL (≈ 1.43 µM); in the assay on MCF-7, 1.07 µg/mL (≈ 3.74 µM).

In the case of `O=C1C=CC(O)(c2cc(=O)c3c(ccc4ccccc43)o2)C=C1` [compound 15a, 3-(1-hydroxy-4-oxocyclohexa-2,5-dienyl)-1H-benzo[f]chromen-1-one], the IC50 came to 0.55 µg/mL (≈ 1.81 µM) in the assay with A549; 1.08 µg/mL (≈ 3.55 µM) in the assay with HepG2; 0.09 µg/mL (≈ 0.296 µM) in the assay with Hep3B; 0.12 µg/mL (≈ 0.394 µM) in the assay with MDA-MB-231; 0.2 µg/mL (≈ 0.657 µM) in the assay on MCF-7.
